Results: patent US12077503B2, “Substituted cyclic amides and their use as herbicides” (FMC CORPORATION, priority 2015, dated 2024)

Legend:
Format in all cases: in vivo
[1] = tested on: barnyardgrass (Echinochloa crus-galli); assay: Test B flooded paddy test; details: Echinochloa crus-galli, 250 g ai/ha, Flood; 0 to 100 scale where 0 is no effect and 100 is complete control; read-out: Barnyardgrass plant response rating
Outline: (§1)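 Compound goes directly into floodwater once pots are flooded 3 cm above soil, targeting plants at two leaves; the water depth is then held for the test duration. Plants sit 13–15 d in a greenhouse and are rated visually, 100 denoting complete control.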

[2] = tested on: sedge, umbrella (small-flower umbrella sedge, Cyperus difformis); assay: Test B flooded paddy test; details: Cyperus difformis, 250 g ai/ha, Flood; 0 to 100 scale where 0 is no effect and 100 is complete control; read-out: Sedge, Umbrella plant response rating
Outline: as §1

[3] = tested on: ducksalad (Heteranthera limosa); assay: Test B flooded paddy test; details: Heteranthera limosa, 250 g ai/ha, Flood; 0 to 100 scale where 0 is no effect and 100 is complete control; read-out: Ducksalad plant response rating
Outline: as §1

rice (Oryra sativa) = assay: Test B flooded paddy test; details: Oryza sativa, 250 g ai/ha, Flood; 0 to 100 scale where 0 is no effect and 100 is complete control; read-out: Rice plant response rating
Outline: as §1

[4] = tested on: pigweed (Amaranthus retroflexus); assay: Test A preemergence; details: Amaranthus retroflexus, pre-emergence, 240 h, preemergence, 0 to 100 scale where 0 is no effect and 100 is complete control, read-out: Pigweed plant response rating
corn (Zea mays) = assay: Test A postemergence; details: Zea mays, post-emergence, 240 h, postemergence, read-out: Corn plant response rating
Outline: (§2)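 Visual injury scores from 0, no effect, to 100, complete control, were assigned versus untreated controls roughly 10 d after treatment in the greenhouse. Test chemicals, formulated with surfactant in a non-phytotoxic solvent, were applied to planted seeds as a preemergence soil spray or postemergence to one- to two-leaf plants 2 to 10 cm tall, in loam–sand soil.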

[5] = tested on: ryegrass, Italian (Italian ryegrass, Lolium multiflorum); assay: Test A postemergence; details: Lolium multiflorum, post-emergence, 240 h, postemergence, read-out: Ryegrass, Italian plant response rating
Outline: as §2

[6] = tested on: blackgrass (Alopecurus myosuroides); assay: Test A postemergence; details: Alopecurus myosuroides, post-emergence, 240 h, postemergence, read-out: Blackgrass plant response rating
Outline: as §2

[7] = tested on: barnyardgrass (Echinochloa crus-galli); assay: Test A postemergence; details: Echinochloa crus-galli, post-emergence, 240 h, postemergence, read-out: Barnyardgrass plant response rating
Outline: as §2

[8] = tested on: ragweed (common ragweed, Ambrosia elatior); assay: Test A postemergence; details: Ambrosia artemisiifolia, post-emergence, 240 h, postemergence, read-out: Ragweed plant response rating
Outline: as §2

[9] = tested on: wheat (Triticum aestivum); assay: Test A postemergence; details: Triticum aestivum, post-emergence, 240 h, postemergence, read-out: Wheat plant response rating
Outline: as §2

[10] = tested on: Galium (catchweed bedstraw, Galium aparine); assay: Test A postemergence; details: Galium, post-emergence, 240 h, postemergence, read-out: Galium plant response rating
Outline: as §2

[11] = tested on: pigweed (Amaranthus retroflexus); assay: Test A postemergence; details: Amaranthus retroflexus, post-emergence, 240 h, postemergence, read-out: Pigweed plant response rating
Outline: as §2

[12] = tested on: giant foxtail (Setaria faberii); assay: Test A postemergence; details: Setaria faberi, post-emergence, 240 h, postemergence, read-out: Foxtail, Giant plant response rating
Outline: as §2

Kochia (Kochia scoparia) = assay: Test A postemergence; details: Bassia scoparia, post-emergence, 240 h, postemergence, read-out: Kochia plant response rating
Outline: as §2

[13] = 125 g ai/ha, visual injury on 0 to 100 scale (0 no effect, 100 complete control), approx. 10 d
[14] = 500 g ai/ha, 0 to 100 scale, 0 is no effect, 100 is complete control

For `CN1C[C@H](c2csc3ccccc23)[C@@H](C(=O)Nc2cccc(F)c2F)C1=O` [Compound 1115], the pest or weed control at 250 g/ha [1] was 45%, the pest or weed control at 250 g/ha [2] was 0% and the pest or weed control at 250 g/ha [3] was 90%. It also gave a pest or weed control at 250 g/ha (rice (Oryra sativa)) of 30%, a pest or weed control at 125 g/ha ([4]; 125 g ai/ha, approx. 10 d) of 0% and a pest or weed control at 500 g/ha ([4]; 500 g ai/ha) of 40%. For the same molecule, the plant injury at 125 g/ha (corn (Zea mays); [13]) was 40%, the plant injury at 500 g/ha (corn (Zea mays); [14]) was 50% and the pest or weed control at 125 g/ha [5, 13] was 20%. For the same molecule, the pest or weed control at 500 g/ha [5, 14] was 40%, the pest or weed control at 125 g/ha [6, 13] was 30% and the pest or weed control at 500 g/ha [6, 14] was 40%. For the same molecule, the pest or weed control at 125 g/ha [7, 13] was 80%, the pest or weed control at 500 g/ha [7, 14] was 90% and the pest or weed control at 125 g/ha [8, 13] was 0%. The pest or weed control at 500 g/ha [8, 14] was 30%, the plant injury at 125 g/ha [9, 13] was 20% and the plant injury at 500 g/ha [9, 14] was 30%. For the same molecule, the pest or weed control at 125 g/ha [10, 13] was 0%, the pest or weed control at 500 g/ha [10, 14] was 30% and the pest or weed control at 125 g/ha [11, 13] was 20%. It also gave a pest or weed control at 500 g/ha [11, 14] of 20%, a pest or weed control at 125 g/ha [12, 13] of 70% and a pest or weed control at 500 g/ha [12, 14] of 90%. The pest or weed control at 125 g/ha (Kochia (Kochia scoparia); [13]) was 20% and the pest or weed control at 500 g/ha (Kochia (Kochia scoparia); [14]) was 40%.
